One data set relates to MCF-7 cells. Briefly: Proliferation of human breast carcinoma cells, [3H]-thymidine incorporation, MCF-7. The data set is classed as cell-based. The note with it: MCF-7, [3H]-thymidine incorporation. The procedure:
(§1) Human breast carcinoma cells MCF-7, EFM-19 and T-47D were used. The cells were cultured and the tests were carried out as described previously [materials and methods L. De Petrocellis et al. (1998) Proc. Natl. Acad. Sci. U.S.A., 95: 8375-8380]. The activity with respect to the proliferation of the tumour cells was evaluated on the basis of the incorporation of [^3H]-thimidine. The results are expressed as IC50 in μM.

Data set [1] has as its system EFM-19 cells. Briefly: Proliferation of human breast carcinoma cells, [3H]-thymidine incorporation, EFM-19. The data set is classed as cell-based. The note with it: EFM-19, [3H]-thymidine incorporation. The procedure: as §1
A further data set relates to DU-145 cells. Kind of data set: Proliferation of human prostate carcinoma cells DU145 with prolactin, cell count. Format: cell-based. Here is the method:
Human prostate carcinoma cells DU145 were used. The cells were cultured as described previously [materials and methods T. Janssen et al. (1996) Cancer, 77: 144-149].
The cells were then incubated in 96-well plates with Eagle's Minimal Essential Medium (MEM) supplemented with 10% foetal calf serum free of endogenous steroids. After 24 hours, the medium was removed and replaced with a medium containing prolactin (PRL) (1 mIU/ml of medium). The layer of cells was trypsinized and the cells were counted by haemocytometry.
The results are expressed as IC50 in μM.

Data set [2] has as its system EFM-19 cells. Briefly: Synergistic effect of PEA on antiproliferative activity in EFM-19 cells. The data set is classed as cell-based, human. The note with it: for Proliferative activity %: control = 100. The procedure:
as §1
Human breast carcinoma cells EFM-19 were used. The test was carried out as indicated in Example C above.

In the next data set the test system is T-47D cells. Kind of data set: Proliferation of human breast carcinoma cells, [3H]-thymidine incorporation, T-47D. The data set is classed as cell-based. The procedure: as §1
In general terms: Incorporation of labelled thymidine or its analogues reports DNA synthesis.

The target in another data set is T1, cannabinoid receptor CB1 (Mus musculus, UniProt P47746).
T1 construct: endogenous in cells; host or cells: N18TG2 mouse neuroblastoma cells
Briefly: Binding to cannabinoid receptor CB1, displacement of [3H]SR141716A on N18TG2 cell membranes. The following applies: 300 pM [3H]SR141716A, 90 min at 30° C., read-out: Ki, CB1 receptor, N18TG2 + cells, [3H]SR141716A ligand. Here is the method: Mouse neuroblastoma cells N18TG2 which selectively express the cannabinoid receptor CB1 and rat leukaemia basophil cells RBL-2H3+ which selectively express the cannabinoid receptor CB2 were used. […] The binding tests were carried out with membranes of the said cells resuspended in 50 mM pH 7.0 Tris buffer; 2.5 mM mgCl2; 0.8 mM EDTA; 0.05% bovine serum albumin (BSA); 0.01% ethanol and in the presence of 100 μM phenylmethylsulphonyl fluoride (PMSF; sigma) using 300 pM of [^3H]SR141716A and [^3H]WIN55,212-2, respectively, as ligand.
(§2) The membranes were incubated for 90 min at 30° C., filtered on glass microfibre filters (GFC-Whatman) and the radioactivity was measured by liquid scintillation. The specific binding was calculated using either 10 μM SR141716A or 10 μM HU-210 (obtained from Prof. R. Mechoulam, Hebrew University Jerusalem). The Ki values were calculated using the Chang-Prusoff equation and expressed as concentration μM.
A general note: In a radioligand displacement assay an active substance lowers the binding of a labelled ligand.

The next data set deals with T2, receptor CB1 (Mus musculus, UniProt P47746).
T2 construct: endogenous in cells; host or cells: N18TG2 mouse neuroblastoma cells
Kind of data set: Effect on stimulation of cyclic AMP by forskolin in N18TG2 cells. The data set is classed as cell-based. The note with it: 1 μM forskolin, 10 min at 37° C.; read-out: IC50, c-AMP stimulated by forskolin, N18TG2 cells. Here is the method:
The tests were carried out with the aim of checking whether or not the binding of the N-AVAM molecules to the receptor CB1 had any functional significance. […] After incubation, the cells were extracted and the c-AMP levels were evaluated using a suitable kit from Amersham according to the manufacturer's procedure. The data are expressed as IC50, in μM.

The subject of data set [3] is carrageenan-mediated locomotor hyperalgesia. The data set is classed as in vivo.
The test system of data set [4] is carrageenan-mediated oedema. Briefly: Carrageenan-mediated oedema, paw volume. The note with it: 5 mg/kg, oral, carrageenan = 100. The data set is classed as in vivo. Here is the method: The method described previously [materials and methods S. Mazzari et al. (1996) Europ. J. Pharmacol., 300: 227-236] were used for the purpose of evaluating the effects of N-AVAM molecules on the hyperreactivity of sensitive nerve cells.
The test compounds were administered orally suspended in physiological saline densified with CMC. The results are expressed as a percentage of variation in the volume of the paw relative to carrageenan.

The target in the next data set is T3, cannabinoid receptor CB2 (Rattus norvegicus, UniProt Q9QZN9).
T3 construct: endogenous in cells; host or cells: RBL-2H3 rat basophilic leukaemia cells
T3 sequence (Q9QZN9 1-360): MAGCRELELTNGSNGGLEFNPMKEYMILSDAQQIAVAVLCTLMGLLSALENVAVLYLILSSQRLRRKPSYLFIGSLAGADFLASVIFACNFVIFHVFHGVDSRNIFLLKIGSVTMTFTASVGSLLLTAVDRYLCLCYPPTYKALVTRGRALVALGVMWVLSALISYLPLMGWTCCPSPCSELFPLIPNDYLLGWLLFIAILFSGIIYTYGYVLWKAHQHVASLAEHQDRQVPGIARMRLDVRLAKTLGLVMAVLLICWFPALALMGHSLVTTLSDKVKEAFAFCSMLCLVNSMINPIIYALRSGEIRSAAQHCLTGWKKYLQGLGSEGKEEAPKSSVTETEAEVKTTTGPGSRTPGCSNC
Briefly: Binding to cannabinoid receptor CB2, displacement of [3H]WIN55,212-2 on RBL-2H3 cell membranes. The note with it: read-out: Ki, CB2 receptor, RBL-2H3 + cells, [3H]WIN55,212-2 ligand. The procedure: Mouse neuroblastoma cells N18TG2 which selectively express the cannabinoid receptor CB1 and rat leukaemia basophil cells RBL-2H3+ which selectively express the cannabinoid receptor CB2 were used. The cells were cultured as described previously [L. Faci et al. (1995) Proc. Natl. Acad. Sci. U.S.A., 92: 3376-3380; T. Bisogno et al. (1997) J. Biol. Chem., 272: 3315-3323]. [^3H]SR141716A (55 Ci/mmol) was supplied by Amersham; [^3H]WIN55, 212-2(43 Ci/mmol) was supplied by NEN. The binding tests were carried out with membranes of the said cells resuspended in 50 mM pH 7.0 Tris buffer; 2.5 mM mgCl2; 0.8 mM EDTA; 0.05% bovine serum albumin (BSA); 0.01% ethanol and in the presence of 100 μM phenylmethylsulphonyl fluoride (PMSF; sigma) using 300 pM of [^3H]SR141716A and [^3H]WIN55,212-2, respectively, as ligand.
as §2

A short description of data set [5]: Solubility (physicochemical properties of the product).
[6] abbreviates: Homo sapiens, test compound alone 1.0 μM, control = 100, read-out: Proliferative activity %.
Setting [7] is: membranes, 300 pM [3H]WIN55,212-2, 90 min at 30° C.

Several values for one entry are separate records, joined by “and”; a condition that tells them apart may be missing. Identical values can stand only once. Like-named read-outs stand apart in the source and are kept apart here.

The IC50 is the concentration needed to halve the response being measured. The term Ki denotes a measure of affinity in units of concentration, obtained from inhibition or displacement. What is called solubility is the dissolved amount per volume that the medium holds.

T1 sequence (P47746 whole entry): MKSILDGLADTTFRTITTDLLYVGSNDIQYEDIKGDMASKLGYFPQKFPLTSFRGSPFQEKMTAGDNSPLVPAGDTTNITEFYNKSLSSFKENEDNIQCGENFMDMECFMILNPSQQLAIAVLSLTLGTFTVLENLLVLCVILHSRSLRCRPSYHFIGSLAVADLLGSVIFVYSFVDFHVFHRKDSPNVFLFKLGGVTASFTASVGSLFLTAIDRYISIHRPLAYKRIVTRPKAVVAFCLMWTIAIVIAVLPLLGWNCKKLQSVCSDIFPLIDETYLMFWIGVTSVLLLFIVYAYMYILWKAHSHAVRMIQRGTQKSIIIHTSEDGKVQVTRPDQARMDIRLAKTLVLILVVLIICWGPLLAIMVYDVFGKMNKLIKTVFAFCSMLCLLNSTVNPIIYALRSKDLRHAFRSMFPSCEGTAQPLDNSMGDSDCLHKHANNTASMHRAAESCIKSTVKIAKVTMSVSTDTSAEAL
T2 sequence (P47746 whole entry): as above

For the compound `CCCCC/C=C\C/C=C\C/C=C\C/C=C\CCCC(=O)NCCO` [Anandamide, reference compound], the IC50 is 500 nM with MCF-7 cells (Homo sapiens, MCF7); 1500 nM in the data set with EFM-19 cells [1] (Homo sapiens); 500 nM in the data set with DU-145 cells (Homo sapiens, DU-145, prolactin 1 mIU/ml); 1900 nM in the data set on T-47D cells (Homo sapiens, T47D). The activity at 1 µM in the data set with EFM-19 cells [2] (setting [6]) is 84%.

For the compound `COc1cc(CNC(=O)CCCC/C=C/C(C)C)ccc1O` [Capsaicin, reference compound], the inhibition constant Ki on cannabinoid receptor CB1 is greater than 10000 nM.

With `CCCCCCCC/C=C\CCCCCCCC(=O)NCc1ccc(O)c(OC)c1` [Example 1, N-(4-hydroxy-3-methoxybenzyl)oleylamide], the IC50 at receptor CB1 is 1600 nM; with MCF-7 cells, 1600 nM; in the data set on EFM-19 cells [1], 700 nM; with DU-145 cells (prolactin 1 mIU/ml) it was 200 to 300 nM; in the data set on T-47D cells, 1600 nM. Also, the “Percentage of variation in the administered weight (hyperalgesia)” value in data set [3] (5 mg/kg, oral, 0 min) amounted to 100%; in [3] (5 mg/kg, oral, 60 min), 80%; in data set [3] (5 mg/kg, oral, 120 min), 72%; in [3] (5 mg/kg, oral, 180 min) it was 65%; in [3] (5 mg/kg, oral, 240 min), 58%; in data set [3] (5 mg/kg, oral, 300 min), 64%. Moreover, the “Percentage of variation in the volume of the paw relative to carrageenan” value was found to be 75% in data set [4] (60 min), 70% in data set [4] (120 min) and 65% in [4] (180 min). In addition, the Ki at cannabinoid receptor CB2 (setting [7]) is greater than 15000 nM; on cannabinoid receptor CB1 it was 1640 ± 360 nM. In addition, the Proliferative activity % in the data set on EFM-19 cells [2] (test compound alone 1.0 μM) was 60%. Also, the “Solubility in organic solvents, DMSO” value in data set [5] (in DMSO) is greater than 10000 µg/mL. In data set [5], the “Solubility in organic solvents, ethanol” value is greater than 10000 µg/mL. The Solubility in water entry in data set [5] is on record as “sparingly soluble”.

Consider `CCCCCCCCCCCCCCCC(=O)NCc1ccc(O)c(OC)c1` [Example 2, N-(4-hydroxy-3-methoxybenzyl)-palmitoylamide], for which the IC50 was 1800 nM at receptor CB1, 2100 nM in the data set with MCF-7 cells, 1000 nM in the data set with EFM-19 cells [1] and 800 nM in the data set on T-47D cells. Further, the inhibitory constant (Ki) at cannabinoid receptor CB2 (setting [7]) was greater than 15000 nM; on cannabinoid receptor CB1, 1750 ± 350 nM. The “Solubility in organic solvents, DMSO” value in [5] (in DMSO) was greater than 10000 µg/mL. Moreover, the “Solubility in organic solvents, ethanol” value in data set [5] was greater than 10000 µg/mL. Besides, the Solubility in water result in data set [5] is on record as “sparingly soluble”.

Turning to `CCCCC/C=C\C/C=C\C/C=C\C/C=C\CCCC(=O)NCc1ccc(O)c(OC)c1` [Example 3, N-(4-hydroxy-3-methoxybenzyl)-arachidonoylamide], the 50% inhibitory concentration (IC50) came to 1300 nM at receptor CB1, 400 nM in the data set on MCF-7 cells, 500 nM in the data set on EFM-19 cells [1] and 300 nM in the data set with T-47D cells. Besides, the inhibitory constant (Ki) was greater than 15000 nM at cannabinoid receptor CB2 (setting [7]) and 1500 ± 290 nM on cannabinoid receptor CB1. The results for the Proliferative activity % in the data set on EFM-19 cells [2] (test compound alone 0.5 μM) and in the data set on EFM-19 cells [2] (test compound alone 1.0 μM) were 70% and 43%, respectively. The “Solubility in organic solvents, DMSO” value in data set [5] (in DMSO) was greater than 10000 µg/mL. Besides, in data set [5], the “Solubility in organic solvents, ethanol” value was greater than 10000 µg/mL. Moreover, the Solubility in water entry in data set [5] is reported as “sparingly soluble”.

For the compound `COc1cc(CNC(=O)CCCCCCCC(=O)NCc2ccc(O)c(OC)c2)ccc1O` [Example 4, N,N′-bis(4-hydroxy-3-methoxybenzyl)-nonanediamide], the Ki on cannabinoid receptor CB1 is 1200 ± 280 nM. Also, in data set [5] (organic solvent or mixture, in DMSO, read-out: Solubility in organic solvents, DMSO), the solubility was greater than 10000 µg/mL. For the same compound, the Solubility in water result in [5] is “sparingly soluble”.

On to `CCCCCCCCCCCCCCCC(=O)NCCO` [N-palmitoylethanolamine, reference compound], for which, in data set [3] (in vivo), the “Percentage of variation in the administered weight (hyperalgesia)” value is 100% and 82% and 80% and 76% and 64% and 66%. Also, the Ki at cannabinoid receptor CB2 stood at 1 ± 0.6 nM. Further, the activity at 1 µM in the data set with EFM-19 cells [2] (setting [6]) amounted to 100%. In the data set with EFM-19 cells [2] (Homo sapiens, test compound alone 2.5 μM, control = 100, read-out: Proliferative activity %), the activity at 2.5 µM was found to be 100%. In addition, the activity at 5 µM in the data set on EFM-19 cells [2] (Homo sapiens, test compound alone 5.0 μM, control = 100, read-out: Proliferative activity %) was found to be 100%. Further, in the data set with EFM-19 cells [2] (Homo sapiens, test compound alone 10 μM, control = 100, read-out: Proliferative activity %), the activity at 10 µM is 100%.

Values taken from patent US7244767B2 (priority 1998, dated 2007).
